Laboratory results from ChEMBL document CHEMBL1137546, “The discovery of indole-derived long acting beta2-adrenoceptor agonists for the treatment of asthma and COPD” (Bioorg Med Chem Lett, 2007).

Experiments:
[1] = Lipophilicity, log D of the compound; assay type: physicochemical; conditions: octanol/water
[2] = target: Beta-2 adrenergic receptor (Homo sapiens, UniProt P07550)
Description: Agonist activity at human recombinant adrenergic beta-2 receptor expressed in CHO cells assessed as elevation in cAMP levels

[3] = organism: Homo sapiens; experiment: Ratio of EC50 for human recombinant adrenergic beta-2 receptor to EC50 for human recombinant adrenergic beta-1 receptor
[4] = Protein binding in rat plasma; assay type: ADME, cell-free; conditions: read-out: PPB (converted)
[5] = Metabolic stability in human liver microsomes; assay type: ADME, Microsome
[6] = Total clearance in iv dosed rat; assay type: ADME, organism-based; conditions: in vivo
[7] = Oral bioavailability po dosed rat; assay type: ADME, organism-based; conditions: in vivo
[8] = Half life in iv dosed rat; assay type: ADME, organism-based; conditions: in vivo
[9] = tested on: Rattus norvegicus; experiment: Unbound clearance in iv dosed rat; assay type: ADME, organism-based; conditions: in vivo
[10] = Apparent permeability from basolateral to apical side of human Caco-2 cell membrane; assay type: ADME, cell-based
[11] = Apparent permeability from apical to basolateral side of human Caco-2 cell membrane; assay type: ADME, cell-based
[12] = Volume of distribution in iv dosed rat; assay type: ADME, organism-based; conditions: in vivo

Sequence of Beta-2 adrenergic receptor (P07550 whole entry): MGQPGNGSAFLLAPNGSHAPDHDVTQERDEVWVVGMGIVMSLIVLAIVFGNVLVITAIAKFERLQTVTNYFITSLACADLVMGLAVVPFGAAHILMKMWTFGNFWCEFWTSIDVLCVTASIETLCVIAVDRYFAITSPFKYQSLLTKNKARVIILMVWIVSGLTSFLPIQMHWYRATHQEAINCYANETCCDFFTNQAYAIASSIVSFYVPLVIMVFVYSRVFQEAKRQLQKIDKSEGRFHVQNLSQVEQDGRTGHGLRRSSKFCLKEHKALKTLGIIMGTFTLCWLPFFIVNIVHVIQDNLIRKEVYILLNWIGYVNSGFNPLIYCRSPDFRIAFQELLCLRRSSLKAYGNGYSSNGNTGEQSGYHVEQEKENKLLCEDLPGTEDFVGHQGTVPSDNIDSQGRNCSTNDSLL

Structure (SMILES)	logD [1]	EC50 [2]	Ratio EC50 [3]	further results
OCc1cc([C@@H](O)CNCCCCCCOCCCCc2ccccc2)ccc1O [SALMETEROL]	2.1			
CC[C@H](Cc1ccc2[nH]c(C(=O)NCc3c(OC)cccc3OC)cc2c1)NC[C@H](O)c1ccc(O)c(CO)c1		0.258 nM	5740	
COc1cccc(CCNC(=O)c2cc3cc(C[C@@H](C)NC[C@H](O)c4ccc(O)c(CO)c4)ccc3[nH]2)c1	2	0.254 nM	35	
COc1cccc(OC)c1CNC(=O)c1cc2cc(C[C@@H](C)NC[C@H](O)c3ccc(O)c(CO)c3)ccc2n1Cc1ccccc1		0.687 nM	237	
CCn1c(C(=O)NCc2c(OC)cccc2OC)cc2cc(C[C@@H](C)NC[C@H](O)c3ccc(O)c(CO)c3)ccc21		2.55 nM	254	
C[C@H](Cc1ccc2[nH]c(C(=O)NCC3CCC3)cc2c1)NC[C@H](O)c1ccc(O)c(CO)c1	1.9	0.051 nM	410	
C[C@H](Cc1ccc2[nH]c(C(=O)NCc3nccs3)cc2c1)NC[C@H](O)c1ccc(O)c(CO)c1	0.8	0.031 nM	1340	
C[C@H](Cc1ccc2[nH]c(C(=O)NCc3ccccn3)cc2c1)NC[C@H](O)c1ccc(O)c(CO)c1		0.038 nM	1530	
COc1cccc(OC)c1CNC(=O)c1cc2cc(C[C@@H](C)NC[C@H](O)c3ccc(O)c(CO)c3)ccc2n1C		0.706 nM	1080	

Further lines, with some results ahead:

logD [1]	EC50 [2]	Ratio EC50 [3]	Structure (SMILES)	further results
	0.038 nM	332	CSc1ccccc1CNC(=O)c1cc2cc(C[C@@H](C)NC[C@H](O)c3ccc(O)c(CO)c3)ccc2[nH]1	
2.2	0.058 nM	585	C[C@H](Cc1ccc2[nH]c(C(=O)N[C@H](C)c3ccccc3)cc2c1)NC[C@H](O)c1ccc(O)c(CO)c1	
2.2	0.058 nM	4040	COc1cccc(OC)c1CNC(=O)c1cc2cc(C[C@@H](C)NC[C@H](O)c3ccc(O)c(CO)c3)ccc2[nH]1	fraction unbound [4]: 0.1; half-life [5]: 4 min; clearance [6]: 130 mL/min/kg; bioavailability [7]: < 5%; half-life [8]: 96 min; CL [9]: 1200 mL/min/kg; Papp B→A [10]: 14 ×10⁻⁶ cm/s; Papp A→B [11]: < 1 ×10⁻⁶ cm/s; Vd [12]: 18 L/kg
2.1	0.022 nM	882	C[C@H](Cc1ccc2[nH]c(C(=O)N(C)Cc3ccccc3)cc2c1)NC[C@H](O)c1ccc(O)c(CO)c1	
2.2		1240	COc1ccccc1CNC(=O)c1cc2cc(C[C@@H](C)NC[C@H](O)c3ccc(O)c(CO)c3)ccc2[nH]1	
	0.122 nM	42	C[C@H](Cc1ccc2[nH]c(C(=O)NCc3ccc(S(N)(=O)=O)cc3)cc2c1)NC[C@H](O)c1ccc(O)c(CO)c1	
	0.164 nM	75	C[C@H](Cc1ccc2[nH]c(C(=O)NCc3ccc(O)cc3)cc2c1)NC[C@H](O)c1ccc(O)c(CO)c1	
	0.049 nM	480	C[C@H](Cc1ccc2[nH]c(C(=O)NCc3ccccc3)cc2c1)NC[C@H](O)c1ccc(O)c(CO)c1	
	0.053 nM	296	C[C@H](Cc1ccc2[nH]c(C(=O)NCc3c(F)cccc3F)cc2c1)NC[C@H](O)c1ccc(O)c(CO)c1	
